# From patent publication US20220073557A1, “FLUORINATED BILE ACIDS” (NZP UK LIMITED, priority 2018, published 2022)
# pEC50: −log10 of the molar value.
# Experiments:
# [1] = test system: sporadic PD patient fibroblasts; assay: Mitochondrial membrane potential (MMP, TMRM) in sporadic PD patient fibroblasts; type: cell-based; settings: Homo sapiens, Fibroblast, 24 h; for pEC50: read-out: MMP EC50; for activity at 0.3 µM: max response with highest dose (300 nM), read-out: MMP Top (% of vehicle treated); for activity at 60 pM: max response with lowest dose (0.06 nM), read-out: MMP Bottom (% of vehicle treated)
# Experimental: (§1) Fibroblasts were cultured in DMEM (Invitrogen) and routinely subcultured every 3-5 days using trypsin to dissociate them.
# Fibroblasts were cultured and plated into a Griener black 384 pClear® plate at 10000 cells per well in 50 μl of media volume. The plates are left overnight in an incubator to allow the fibroblasts to adhere to the plate surface. The following morning the Glucose based medium is replaced with 25 μl of Galactose based media. The plates were then dosed with the compounds using an ECHO® 550 liquid handling system. The wells were dosed to provide an 8-point concentration range of 0.06 nM-300 nM of compound. After dosing the wells are topped up with a further 25 μl of Galactose based medium and then left in an incubator for 24 hours. After 24 hours, the medium is removed from the wells and replaced with 25 ul phenol free Minimal essential medium with 100 nM TMRM (Sigma) and 10 μM Hoechst Stain (Sigma). The plate is returned to the incubator for another hour after which the stain medium is removed and replaced with 25 ul Phenol free MEM. The plate is then imaged using an IN Cell high content microscope (GE Healthcare) with 10 fields of view per well in 2 channels, Cy3 excitation 542 nm, emission 604-64 nm; and the DAPI excitation 350 nm, emission 450-55 nm at 37° C. with CO2. After imaging the plate is disposed of and the images are Data mined using the INCell developer Toolkit (GE Healthcare).
# (§2) After the assays had been repeated in triplicate per line and compound the data was then inputted into Graph pad Prism 7 software suite where a dose response curve is generated using the default “[Agonist] vs response (three parameters)” equation.
# (§3) From this EC50 values, lowest response and maximal response were taken and used to calculate the Geometric mean between the 5 different lines assessed.
# The mitochondrial membrane potential was measured in fibroblasts from 6 (Table 1) or 3 (Table 2) patients with sporadic Parkinson's disease when treated with Compounds of the invention or Comparator compounds. The results are shown in Tables 1 and 2, where “Bottom”=max response with lowest dose of compound (0.06 nM) and “top”=max response with highest dose of compound (300 nM).
# [2] = test system: sAD and familial AD (PSEN1 mutants) patient fibroblasts; assay: Total cellular ATP levels in Alzheimer's disease patient fibroblasts; type: cell-based, human; settings: 24 hour treatment at 100 nM, 21% restores to control levels
# Experimental: Data shown in the Table 6 below is the mean increase in ATP levels after 24 hour treatment with compounds at 100 nM concentration.
# [3] = test system: sporadic PD patient fibroblasts; assay: Cellular ATP levels (ATPlite, normalised to CyQUANT DNA content) in sporadic PD patient fibroblasts; type: cell-based; settings: Homo sapiens, Fibroblast, 24 h; for pEC50: read-out: Cellular ATP levels EC50; for activity at 0.3 µM: max response with highest dose (300 nM), read-out: Cellular ATP levels Top (% of vehicle treated); for activity at 60 pM: max response with lowest dose (0.06 nM), read-out: Cellular ATP levels Bottom (% of vehicle treated)
# Experimental: as §1
# The ATP protocol is generally as described in Mortiboys et al, “Mitochondrial function and morphology are impaired in parkin-mutant fibroblasts”, Ann Neurol. 2008 November; 64(5):555-65. Briefly, fibroblasts were cultured as and plated into white 384 well plates with 5000 cells per well in 50 μl of media volume. The plates are left overnight in an incubator to allow the fibroblasts to adhere to the plate surface. The following morning the Glucose based medium is replaced with 25 μl of Galactose based medium. The compounds are added to the plates using a ECHO 550 liquid handling system. The wells were dosed to provide an 8-point concentration range of 0.06 nM-300 nM of compound. After dosing the wells are topped up with a further 25 μl of Galactose based medium and then left in an incubator for 24 hours. Following this incubation the medium is removed from the plate and the wells are washed twice with sterile PBS. The wells are filled with 25 μl of Sterile PBS followed by 12.5 μl of Lysis solution from the ATPlite™ Luminescence ATP detection assay system (Perkin Elmer), including 16 cell free wells to use as blank controls. The plate is then placed on a rotary shaker for 5 mins at 700 rpm. Following the shaking 12.5 μl of ATP substrate solution (Perkin Elmer) is added to each well and a further 5 min of shaking. The plate is then placed in darkness for 10 minutes prior to reading. Using a PHERAStar® plate reader, luminescence intensity is recorded. Following the ATP assay the plates are immediately assayed for DNA content in a CyQUANT® assay.
# Immediately following The ATP assay DNA content is assessed with the CyQUANT® NF Cell Proliferation Assay Kit (ThermoFisher). CyQUANT® buffer is prepared immediately before the assay and is comprised of 1 ul CyQUANT® dye per ml×1 HBSS solution. 12.5 ul of CyQUANT® buffer is added to each well. Plate left in incubator for 1 hour then read on a PHERAStar® Plate reader with excitation at 497 nm and emission at 520 nm. ATP Quantification for each well is determined using the following formula: […]
# as §2, §3
# Cellular ATP levels were measured in fibroblasts from 6 (Table 3) or 3 (Table 4) patients with sporadic Parkinson's disease when treated with Compounds of the invention or Comparator compounds. The results are shown in Tables 3 and 4, where “Bottom”=max response with lowest dose of compound (0.06 nM) and “top”=max response with highest dose of compound (300 nM).
# [4] = test system: mitochondrial respiratory chain complex I; assay: Complex I assay, left striatum brain homogenate of mice dosed with or without MPTP; type: in vivo, mouse; settings: left striatum mouse brain homogenate; MPTP alone; FIG. 4
# Experimental: Ex vivo mice brain was homogenated in a buffer of 250 mM sucrose, 20 mM HEPES, 3 mM EDTA, pH 7.5 at 4° C. Homogenisation was carried out using a Dounce homogenizer, for cortex samples, and by repetitive passage through a 0.5 mm syringe for isolated striatum. Samples were then incubated with 30 μl of detergent from the AbCam colorimetric Complex I assay kit on ice for 20 minutes. Samples are then centrifuged at 13,000 rpm for 30 mins. Triplicate samples per condition were blocked using the kit blocking buffer on the AbCam colorimetric Complex I assay kit plate for 3 hours. Samples are then washed using the kit wash buffer 3 times before the addition of the kit assay buffer containing NADH and colorimetric dye. The assay plate is read on a plate reader in a kinetic assay programme reading 450 nm in a 30 second interval for 50 minutes.
# [5] = 6 sporadic PD patient fibroblasts
# [6] = 3 sporadic PD patient fibroblasts
SMILES,"pEC50 [1, 5]","activity at 0.3 µM [1, 5]","activity at 60 pM [1, 5]","pEC50 [3, 5]","activity at 0.3 µM [3, 5]","activity at 60 pM [3, 5]",other results
"C[C@H](CCC(=O)O)[C@H]1CC[C@H]2[C@@H]3[C@H](O)C[C@@H]4C[C@@H](O)[C@@H](F)C[C@]4(C)[C@H]3CC[C@]12C [Compound 2, 2β-fluoro-3β,7α-dihydroxy-5β-cholanic acid]",7.68,112%,107%,8.97,113%,79.9%,% increase over vehicle treated (mean increase in ATP levels) [2]: 65%
"C[C@H](CCC(=O)O)[C@H]1CC[C@H]2[C@@H]3[C@H](O)C[C@@H]4C[C@H](O)C(F)(F)C[C@]4(C)[C@H]3CC[C@]12C [Compound 8, 2,2-difluoro-3α,7α-dihydroxy-5β-cholanic acid]",,,,,,,% increase over vehicle treated (mean increase in ATP levels) [2]: 65%
"C[C@H](CCC(=O)NC1CCCS(=O)(=O)C1)[C@H]1CC[C@H]2[C@@H]3[C@@H](O)C[C@@H]4C[C@@H](O)C(F)(F)C[C@]4(C)[C@H]3CC[C@]12C (stereo partly drawn) [Compound 31, N-(2,2-difluoro-3β,7β-dihydroxy-5β-cholan-24-oyl) 1,1-dioxidotetrahydro-2H-thiopyran-3-ylamine]",,,,,,,"pEC50 [1, 6]: 8.26; activity at 0.3 µM [1, 6]: 151%; activity at 60 pM [1, 6]: 99.6%; pEC50 [3, 6]: 7.88; activity at 0.3 µM [3, 6]: 133%; activity at 60 pM [3, 6]: 108%"
"C[C@H](CCC(=O)O)[C@H]1CC[C@H]2[C@@H]3C(=O)C[C@@H]4CC(=O)C(F)(F)C[C@]4(C)[C@H]3CC[C@]12C [Compound E, 2,2-difluoro-3,7-dioxo-5β-cholanic acid, reference compound]",7.63,112%,105%,7.73,136%,81.6%,
"C[C@H](CCC(=O)O)[C@H]1CC[C@H]2[C@@H]3[C@@H](O)C[C@@H]4C[C@@H](O)C(F)=C[C@]4(C)[C@H]3CC[C@]12C [Compound F, 2-fluoro-3β,7β-dihydroxy-5β-chol-1-enic acid, reference compound]",9.17,108%,110%,8.72,112%,99.9%,
"C[C@H](CCC(=O)O)[C@H]1CC[C@H]2[C@@H]3C(=O)C[C@@H]4CC(=O)C(F)=C[C@]4(C)[C@H]3CC[C@]12C [Compound G, 2-fluoro-3,7-dioxo-5β-chol-1-enic acid, reference compound]",6.55,123%,103%,7.23,92.7%,83.3%,
"C[C@H](CCC(=O)O)[C@H]1CC[C@H]2[C@@H]3[C@H](O)C[C@@H]4C[C@H](O)C(F)=C[C@]4(C)[C@H]3CC[C@]12C [Compound H, 2-fluoro-3α,7α-dihydroxy-5β-chol-1-enic acid, reference compound]",8.34,109%,99.8%,9.90,121%,87.6%,
"CN1CC=C(c2ccccc2)CC1 [MPTP, 1-methyl-4-phenyl-1,2,3,6-tetrahydropyridine, reference compound]",,,,,,,Reduction in complex I activity compared with untreated controls [4]: 50%
